Results published in US7915300B2, “Cysteine protease inhibitors” (Medivir AB, priority 2004, dated 2011).
Where two headings read alike, the source gives them in different places.

Key:
cathepsin K [1] = target: T1, cathepsin K (Homo sapiens, UniProt P43235); assay: Cathepsin K proteolytic activity, inhibition studies (Ki) with fluorogenic peptide substrate; format: biochemical; parameters: made in house; host or cells: not fixed: E coli, Pichia or Baculovirus systems named as options; settings: side by side trials in the same assay system; read-out: Cathepsin K K^1
T1 sequence (P43235 115-329): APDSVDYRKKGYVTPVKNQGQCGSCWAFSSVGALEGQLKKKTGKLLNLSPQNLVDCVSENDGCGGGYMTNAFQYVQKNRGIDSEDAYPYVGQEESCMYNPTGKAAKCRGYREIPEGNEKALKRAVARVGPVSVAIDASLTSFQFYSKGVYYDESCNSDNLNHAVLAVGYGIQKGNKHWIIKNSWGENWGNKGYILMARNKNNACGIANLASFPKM
Protocol: Convenient assays for cathepsin K are carried out using human recombinant enzyme, such as that described in PDB.
The recombinant cathepsin K can be expressed in a variety of commercially available expression systems including E coli, Pichia and Baculovirus systems. The purified enzyme is activated by removal of the prosequence by conventional methods.
Standard assay conditions for the determination of kinetic constants used a fluorogenic peptide substrate, typically H-D-Ala-Leu-Lys-AMC, and were determined in either 100 mM Mes/Tris, pH 7.0 containing 1 mM EDTA and 10 mM 2-mercaptoethanol or 100 mMNa phosphate, imM EDTA, 0.1% PEG4000 pH 6.5 or 100 mM Na acetate, pH 5.5 containing 5 mM EDTA and 20 mM cysteine, in each case optionally with […] as stabiliser. The enzyme concentration used was 5 nM. The stock substrate solution was prepared at 10 mM in DMSO. Screens were carried out at a fixed substrate concentration of 60 μM and detailed kinetic studies with doubling dilutions of substrate from 250 μM. The total DMSO concentration in the assay was kept below 3%. […] Product fluorescence (excitation at 390 nm, emission at 460 nm) was monitored with a Labsystems Fluoroskan Ascent fluorescent plate reader. […]
Potential inhibitors are screened using the above assay with variable concentrations of test compound. […] Ki values were calculated according to equation 1 […]

cathepsin K [2] = target: T1, cathepsin K; settings: value from WO 02057270; read-out: Ki indicated in WO 02057270; cited from earlier work

Ki (cathepsin K [1])	Compound	Ki (cathepsin K [2])
66 nM	CC(C)CC(NC(=O)c1ccc(Oc2ccccc2)cc1)C(=O)N1CC[C@H]2OCC(=O)[C@H]21 (stereo partly drawn)	100 nM
5.3 nM	CC(C)CC(NC(=O)c1ccc(Oc2ccccc2)cc1)C(=O)N1C[C@H](F)[C@H]2OCC(=O)[C@H]21 (stereo partly drawn)	–
